Measurements reported in PubChem BioAssay AID2633 (Broad Institute, 2010).
Active and inactive are the calls of the source. How the calls were made is not given here.

System: DRD oncogenic fibroblast cytotoxicity, fluorescence viability
Assay: killing of non-viral transformed DRD fibroblasts – cell-based, fluorescence viability readout, dose response (AID 2633)

| SMILES | EC50 |
| --- | --- |
| CCOc1ccc(Nc2nc(N)nc(CCl)n2)cc1 | 575 nM |
| O=C(CCCCCN1C(=O)c2cccc3cccc(c23)C1=O)NCc1cccnc1 | > 6670 nM (inactive) |
| C/C(=N\Nc1ncc(Cl)cc1Cl)c1ccccn1 | 19.6 nM |
| CCc1ccc(/C=C2/SC(=S)N(CCC(=O)NCCCN3CCOCC3)C2=O)cc1 | 5320 nM |
| CC[C@@]1(O)C(=O)OCc2c1cc1n(c2=O)Cc2cc3c(CN(C)C)c(O)ccc3nc2-1 | 820 nM |
| COc1ccc(C(C(=O)NC2CCCCC2)N(C(=O)CCl)c2cccc(Cl)c2)cc1 (stereo not drawn) | 48.6 nM |
| COc1ccc(Cc2nc(-c3ccc(NC(=O)c4cccnc4)cc3)no2)cc1 | > 6670 nM (inactive) |
| CCc1ccc(/C=C2\SC(=S)N(CCC(=O)NCCCN3CCOCC3)C2=O)cc1 | 4700 nM |
| O=C(COc1ccc(Cl)cc1)Nc1ccc(C(=O)NCc2cccnc2)cc1 | > 6670 nM (inactive) |
| CC(=O)Nc1ccc(NC(=O)CN(c2cccc([N+](=O)[O-])c2)S(C)(=O)=O)cc1 | > 6670 nM (inactive) |
| COc1ccc(N(C(=O)CCl)C(C(=O)NCCc2ccccc2)c2cccs2)cc1 (stereo not drawn) | 447 nM |
| O=C(NCc1cccnc1)c1ccc(NC(=O)c2cccc([N+](=O)[O-])c2)cc1 | > 6670 nM (inactive) |
| O=S(=O)(c1ccc2c(c1)C(=NO)c1cc(S(=O)(=O)N3CCCCC3)ccc1-2)N1CCCCC1 | 2120 nM |
| COc1ccc(C(C(=O)NC2CCCCC2)N(C(=O)CCl)c2ccc(C)cc2)cc1 (stereo not drawn) | 737 nM |
| CC(C)c1onc(C(=O)N2CCN(C(c3ccccc3)c3ccccc3)CC2)c1[N+](=O)[O-] | 617 nM |
| CC[C@@]1(O)C(=O)OCc2c1cc1n(c2=O)Cc2cc3c(NC(=O)CN)cccc3nc2-1 | 4610 nM |
| Nc1nc(CCl)nc(Nc2ccc3ccccc3c2)n1 | 182 nM |
| Cc1cccc(Nc2nc(N)nc(CCl)n2)c1C | 568 nM |
| Cc1cccc(OCC(=O)Nc2ccc(C(=O)NCc3cccnc3)cc2)c1 | > 6670 nM (inactive) |
| Cc1ccc(/C=C2\SC(=S)N(CCCC(=O)N3CCOCC3)C2=O)cc1 | > 6670 nM (inactive) |

| SMILES | EC50 |
| --- | --- |
| COc1ccc(/C=N/NC(=O)c2[nH]c3ccc(Br)cc3c2-c2ccccc2)cc1 | 134 nM |
| COc1ccc(S(=O)(=O)N2CCOCC2)cc1NC(=O)CCNC(=O)c1ccc(Br)cc1 | > 6670 nM (inactive) |
| CC(C)C(=O)Nc1ccc(C(=O)NCc2cccnc2)cc1 | > 6670 nM (inactive) |
| COc1ccc(N(C(=O)CCl)C(C(=O)NCCc2ccccc2)c2cccs2)cc1Cl (stereo not drawn) | 25.3 nM |
| O=C1SC(Cc2ccccc2)C(=O)N1c1ccccc1 (stereo not drawn) | > 6670 nM (inactive) |
| COc1ccc(CN(CCC(c2ccccc2)c2ccc(OC(C)C)cc2)C(=O)CCl)cc1OC (stereo not drawn) | 1480 nM |
| COC(=O)C[C@](O)(CCCC(C)(C)O)C(=O)O[C@@H]1C(OC)=C[C@]23CCCN2CCc2cc4c(cc2[C@H]13)OCO4 | 4.64 nM |
| Cc1cccnc1Nc1nc(-c2ccccn2)cs1 | 428 nM |
| CC(Oc1ccc(Cl)cc1Cl)c1nc(-c2ccc(NC(=O)c3cccnc3)cc2)no1 (stereo not drawn) | > 6670 nM (inactive) |
| COc1ccc(-c2nnc(NC(=O)c3ccc(S(=O)(=O)N4CCc5ccccc5C4)cc3)o2)cc1 | > 6670 nM (inactive) |
| CC1=CC(=O)C=C(C)C1=NOc1ccccc1[N+](=O)[O-] | > 6670 nM (inactive) |
| CCN1/C(=C\C=C\C2=[N+](CC)c3ccccc3C2(C)C)C(C)(C)c2ccccc21 | 249 nM |
| O=C(CCl)N=c1sccn1Cc1ccccc1Cl | 126 nM |
| Cc1ccc(C(=O)Sc2cccccc2=O)cc1 | 55.4 nM |
| CCCCCCCN(C(=O)CCl)c1cccc(C)c1 | 1090 nM |
| O=C(Cc1ccc([N+](=O)[O-])cc1)N/N=C/c1ccc([N+](=O)[O-])o1 | > 6670 nM (inactive) |
| Oc1ccccc1N=Nc1nc(-c2ccccc2)c(-c2ccccc2)[nH]1 | 378 nM |
| CN1CCN(C(=O)CCCN2C(=O)/C(=C/c3cccc(Br)c3)SC2=S)CC1 | > 6670 nM (inactive) |
| CC[C@@]1(O)C(=O)OCc2c1cc1n(c2=O)Cc2cc3ccccc3nc2-1 | 454 nM |
| Cc1onc(C(=O)N2CCN(C(c3ccccc3)c3ccccc3)CC2)c1[N+](=O)[O-] | 1300 nM |

| SMILES | EC50 |
| --- | --- |
| Cc1ccccc1Nc1nc(N)nc(CCl)n1 | 1980 nM |
| C=C1C(=O)O[C@@H]2C[C@@H](C)[C@@H]3C=CC(=O)[C@@]3(C)[C@@H](OC(=O)CC(=O)O[C@H]3[C@@H]4C(=C)C(=O)O[C@@H]4C[C@@H](C)[C@@H]4C=CC(=O)[C@]43C)[C@H]12 | 32.4 nM |
| CC[C@H]1CN2CCc3cc(OC)c(OC)cc3[C@@H]2C[C@@H]1C[C@H]1NCCc2cc(OC)c(OC)cc21 | 9.12 nM |
| COc1cccc(N(C(=O)CCl)C(C(=O)NCCc2ccccc2)c2cccs2)c1 (stereo not drawn) | 280 nM |
| Nc1nc(CCl)nc(Nc2cccc3ccccc23)n1 | 660 nM |
| COc1ccc(C[C@H]2NC[C@H](O)[C@H]2OC(C)=O)cc1 | 44.7 nM |
| Cc1cccc(Nc2nc(N)nc(CCl)n2)c1 | 2180 nM |
| Cc1ccc(C2CC(c3cccs3)=NN2C(=O)CCl)cc1 (stereo not drawn) | 1420 nM |
| CC[C@@]1(O)C(=O)OCc2c1cc1n(c2=O)Cc2cc3c(N)cccc3nc2-1 | 129 nM |
| COc1ccc(OC)c(Nc2nc(N)nc(CCl)n2)c1 | 1520 nM |
| CCOc1ccc(CC(=O)Nc2ccc(NC(=O)c3ccco3)cc2)cc1OCC | > 6670 nM (inactive) |
| O=C(N/N=C/c1cccnc1)c1ccc(NC(=O)C(c2ccccc2)c2ccccc2)cc1 | > 6670 nM (inactive) |
| Cc1ccc(Nc2nc(N)nc(CCl)n2)c(C)c1 | 499 nM |
| O=C(NCc1cccnc1)c1ccc(NC(=O)c2ccc([N+](=O)[O-])cc2)cc1 | > 6670 nM (inactive) |
| Cc1ccc(N(C(=O)CCl)C(C(=O)NC2CCCCC2)c2cccnc2)cc1C (stereo not drawn) | 75.6 nM |
| CCc1ccc(/C=C2/SC(=S)N(CCC(=O)Nc3cccnc3)C2=O)cc1 | > 6670 nM (inactive) |
| C=CCOc1ccccc1CN(C(=O)CCl)c1ccc2c(c1)OCO2 | 2430 nM |
| COC(=O)[C@@H]1Cc2c([nH]c3ccccc23)C(C)(C)N1C(=O)CCl | 1010 nM |
